Laboratory results as given in US7138361B2, “Herbicidal heterocycles” (E. I. du Pont de Nemours and Company, priority 2000, dated 2006).

Experiments:
Experiment in all cases: Test C postemergence
Format in all cases: in vivo
[1] = test system: Surinam grass (Brachiaria decumbens)
Summary of the method: (§1)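 Pre- and postemergence treatments used a non-phytotoxic solvent/surfactant formulation; post-treated plants measured 2 to 18 cm. Greenhouse hold 12–14 d; % control estimated visually relative to controls.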

[2] = test system: chickweed (Stellaria media)
Summary of the method: as §1

[3] = test system: cocklebur (Xanthium strumarium)
Summary of the method: as §1

[4] = test system: common ragweed (Ambrosia elatior)
Summary of the method: as §1

corn (Zea mays) = test system: corn (Zea mays)
Summary of the method: as §1

[5] = test system: crabgrass (Digitaria sanguinalis)
Summary of the method: as §1

[6] = test system: giant foxtail (Setaria faberii)
Summary of the method: as §1

[7] = test system: goosegrass (Eleusine indica)
Summary of the method: as §1

[8] = test system: johnsongrass (Sorghum halepense)
Summary of the method: as §1

kochia (Kochia scoparia) = test system: kochia (Kochia scoparia)
Summary of the method: as §1

[9] = test system: morningglory (Ipomoea hederacea)
Summary of the method: as §1

[10] = test system: pigweed (Amaranthus retroflexus)
Summary of the method: as §1

soybean (Glycine max) = test system: soybean (Glycine max)
Summary of the method: as §1

[11] = test system: velvetleaf (Abutilon theophrasti)
Summary of the method: as §1

[12] = test system: woolly cupgrass (Eriochloa villosa)
Summary of the method: as §1

[13] = test system: yellow nutsedge (Cyperus esculentus)
Summary of the method: as §1

[14] = Rate 125 g/ha, scale 0 to 100, 0 no effect, 100 complete control
[15] = Rate 250 g/ha, scale 0 to 100 (0 no effect, 100 complete control)
[16] = Rate 500 g/ha, scale 0 to 100 (0 no effect, 100 complete control)

COc1cc(N2CCC(n3ccc(C(C)C)n3)C2=O)ccc1C (stereo not drawn) [Compound 85]
Plant response rating, Surinam grass ([1]; Rate 62 g/ha, scale 0 to 100): 0 | Plant response rating, Surinam grass [1, 14]: 20 | Plant response rating, Surinam grass [1, 15]: 20 | Plant response rating, Surinam grass [1, 16]: 60 | Plant response rating, Chickweed ([2]; Rate 62 g/ha, scale 0 to 100): 20 | Plant response rating, Chickweed [2, 14]: 70 | Plant response rating, Chickweed [2, 15]: 100 | Plant response rating, Chickweed [2, 16]: 100 | Plant response rating, Cocklebur ([3]; Rate 62 g/ha, scale 0 to 100): 40 | Plant response rating, Cocklebur [3, 14]: 70 | Plant response rating, Cocklebur [3, 15]: 90 | Plant response rating, Cocklebur [3, 16]: 90 | Plant response rating, Ragweed, Common ([4]; Rate 62 g/ha, scale 0 to 100): 0 | Plant response rating, Ragweed, Common [4, 14]: 20 | Plant response rating, Ragweed, Common [4, 15]: 20 | Plant response rating, Ragweed, Common [4, 16]: 90 | Plant response rating, Corn (corn (Zea mays); Rate 62 g/ha, scale 0 to 100): 50 | Plant response rating, Corn (corn (Zea mays); [14]): 50 | Plant response rating, Corn (corn (Zea mays); [15]): 50 | Plant response rating, Corn (corn (Zea mays); [16]): 60 | Plant response rating, Crabgrass ([5]; Rate 62 g/ha, scale 0 to 100): 30 | Plant response rating, Crabgrass [5, 14]: 30 | Plant response rating, Crabgrass [5, 15]: 40 | Plant response rating, Crabgrass [5, 16]: 70 | Plant response rating, Foxtail, Giant ([6]; Rate 62 g/ha, scale 0 to 100): 20 | Plant response rating, Foxtail, Giant [6, 14]: 20 | Plant response rating, Foxtail, Giant [6, 15]: 40 | Plant response rating, Foxtail, Giant [6, 16]: 70 | Plant response rating, Goosegrass ([7]; Rate 62 g/ha, scale 0 to 100): 10 | Plant response rating, Goosegrass [7, 14]: 10 | Plant response rating, Goosegrass [7, 15]: 20 | Plant response rating, Goosegrass [7, 16]: 60 | Plant response rating, Johnsongrass ([8]; Rate 62 g/ha, scale 0 to 100): 30 | Plant response rating, Johnsongrass [8, 14]: 40 | Plant response rating, Johnsongrass [8, 15]: 40 | Plant response rating, Johnsongrass [8, 16]: 70 | Plant response rating, Kochia (kochia (Kochia scoparia); Rate 62 g/ha, scale 0 to 100): 40 | Plant response rating, Kochia (kochia (Kochia scoparia); [14]): 60 | Plant response rating, Kochia (kochia (Kochia scoparia); [15]): 80 | Plant response rating, Kochia (kochia (Kochia scoparia); [16]): 90 | Plant response rating, Morningglory ([9]; Rate 62 g/ha, scale 0 to 100): 60 | Plant response rating, Morningglory [9, 14]: 80 | Plant response rating, Morningglory [9, 15]: 80 | Plant response rating, Morningglory [9, 16]: 90 | Plant response rating, Pigweed ([10]; Rate 62 g/ha, scale 0 to 100): 60 | Plant response rating, Pigweed [10, 14]: 70 | Plant response rating, Pigweed [10, 15]: 90 | Plant response rating, Pigweed [10, 16]: 100 | Plant response rating, Soybean (soybean (Glycine max); Rate 62 g/ha, scale 0 to 100): 60 | Plant response rating, Soybean (soybean (Glycine max); [14]): 60 | Plant response rating, Soybean (soybean (Glycine max); [15]): 70 | Plant response rating, Soybean (soybean (Glycine max); [16]): 70 | Plant response rating, Velvetleaf ([11]; Rate 62 g/ha, scale 0 to 100): 40 | Plant response rating, Velvetleaf [11, 14]: 40 | Plant response rating, Velvetleaf [11, 15]: 40 | Plant response rating, Velvetleaf [11, 16]: 40 | Plant response rating, Cupgrass, Woolly ([12]; Rate 62 g/ha, scale 0 to 100): 30 | Plant response rating, Cupgrass, Woolly [12, 14]: 30 | Plant response rating, Cupgrass, Woolly [12, 15]: 60 | Plant response rating, Cupgrass, Woolly [12, 16]: 70 | Plant response rating, Nutsedge ([13]; Rate 62 g/ha, scale 0 to 100): 10 | Plant response rating, Nutsedge [13, 16]: 90

CCCC(C)c1ccn(C2OCN(c3cccc(OC(F)(F)F)c3)C2=O)n1 (stereo not drawn) [Compound 91]
Plant response rating, Surinam grass ([1]; Rate 62 g/ha, scale 0 to 100): 20 | Plant response rating, Surinam grass [1, 14]: 20 | Plant response rating, Surinam grass [1, 15]: 30 | Plant response rating, Surinam grass [1, 16]: 30 | Plant response rating, Chickweed ([2]; Rate 62 g/ha, scale 0 to 100): 70 | Plant response rating, Chickweed [2, 14]: 80 | Plant response rating, Chickweed [2, 15]: 80 | Plant response rating, Chickweed [2, 16]: 90 | Plant response rating, Cocklebur ([3]; Rate 62 g/ha, scale 0 to 100): 0 | Plant response rating, Cocklebur [3, 14]: 0 | Plant response rating, Cocklebur [3, 15]: 0 | Plant response rating, Cocklebur [3, 16]: 20 | Plant response rating, Ragweed, Common ([4]; Rate 62 g/ha, scale 0 to 100): 0 | Plant response rating, Ragweed, Common [4, 14]: 0 | Plant response rating, Ragweed, Common [4, 15]: 0 | Plant response rating, Ragweed, Common [4, 16]: 40 | Plant response rating, Corn (corn (Zea mays); Rate 62 g/ha, scale 0 to 100): 0 | Plant response rating, Corn (corn (Zea mays); [14]): 0 | Plant response rating, Corn (corn (Zea mays); [15]): 0 | Plant response rating, Corn (corn (Zea mays); [16]): 0 | Plant response rating, Crabgrass ([5]; Rate 62 g/ha, scale 0 to 100): 20 | Plant response rating, Crabgrass [5, 14]: 20 | Plant response rating, Crabgrass [5, 15]: 30 | Plant response rating, Crabgrass [5, 16]: 60 | Plant response rating, Foxtail, Giant ([6]; Rate 62 g/ha, scale 0 to 100): 20 | Plant response rating, Foxtail, Giant [6, 14]: 20 | Plant response rating, Foxtail, Giant [6, 15]: 40 | Plant response rating, Foxtail, Giant [6, 16]: 40 | Plant response rating, Goosegrass ([7]; Rate 62 g/ha, scale 0 to 100): 20 | Plant response rating, Goosegrass [7, 14]: 20 | Plant response rating, Goosegrass [7, 15]: 30 | Plant response rating, Goosegrass [7, 16]: 40 | Plant response rating, Johnsongrass ([8]; Rate 62 g/ha, scale 0 to 100): 20 | Plant response rating, Johnsongrass [8, 14]: 20 | Plant response rating, Johnsongrass [8, 15]: 30 | Plant response rating, Johnsongrass [8, 16]: 70 | Plant response rating, Kochia (kochia (Kochia scoparia); Rate 62 g/ha, scale 0 to 100): 70 | Plant response rating, Kochia (kochia (Kochia scoparia); [14]): 70 | Plant response rating, Kochia (kochia (Kochia scoparia); [15]): 90 | Plant response rating, Kochia (kochia (Kochia scoparia); [16]): 90 | Plant response rating, Morningglory ([9]; Rate 62 g/ha, scale 0 to 100): 0 | Plant response rating, Morningglory [9, 14]: 0 | Plant response rating, Morningglory [9, 15]: 60 | Plant response rating, Morningglory [9, 16]: 90 | Plant response rating, Pigweed ([10]; Rate 62 g/ha, scale 0 to 100): 70 | Plant response rating, Pigweed [10, 14]: 70 | Plant response rating, Pigweed [10, 15]: 90 | Plant response rating, Pigweed [10, 16]: 100 | Plant response rating, Soybean (soybean (Glycine max); Rate 62 g/ha, scale 0 to 100): 0 | Plant response rating, Soybean (soybean (Glycine max); [14]): 0 | Plant response rating, Soybean (soybean (Glycine max); [15]): 0 | Plant response rating, Soybean (soybean (Glycine max); [16]): 0 | Plant response rating, Velvetleaf ([11]; Rate 62 g/ha, scale 0 to 100): 0 | Plant response rating, Velvetleaf [11, 14]: 0 | Plant response rating, Velvetleaf [11, 15]: 0 | Plant response rating, Velvetleaf [11, 16]: 0 | Plant response rating, Cupgrass, Woolly ([12]; Rate 62 g/ha, scale 0 to 100): 20 | Plant response rating, Cupgrass, Woolly [12, 14]: 20 | Plant response rating, Cupgrass, Woolly [12, 15]: 40 | Plant response rating, Cupgrass, Woolly [12, 16]: 40 | Plant response rating, Nutsedge ([13]; Rate 62 g/ha, scale 0 to 100): 0 | Plant response rating, Nutsedge [13, 14]: 0 | Plant response rating, Nutsedge [13, 15]: 0 | Plant response rating, Nutsedge [13, 16]: 20
